Reference: patent publication US20210340524A1, “METHODS FOR IDENTIFYING CHIMERIC ANTIGEN RECEPTOR-TARGETING LIGANDS AND USES THEREOF” (Massachusetts Institute of Technology, priority 2020, published 2021)
One block for each compound: values may come before it. Where a SMILES comes first, the peptide text is derived from it. Bridges are numbered along the chain shown (N, C = ends). Where no end group is shown, it is not given here. The star is where a group is joined. Biotin = O=C1N[C@H]2[C@H](CS[C@H]2CCCCC(=O)*)N1

Columns and labels:
FMC63 scFv [1] = assay: Dissociation kinetics of FMC63 scFv from yeast clones, flow cytometry; assay type: binding, murine; conditions: yeast clones labeled with FMC63 scFv, washed, incubated 0-72 hours
Experimental: The dissociation kinetics following binding of the mimotopes to FMC63 were also investigated. Briefly, yeast clone expressing F12 (SEQ ID NO: 18) or K-A1 (SEQ ID NO: 100) were incubated with labeled FMC63 scFv. The yeast were then washed, and incubated for 0-72 hours prior to analysis of the degree of FMC63 scFv labeling by flow cytometry. […] However, the yeast clone expressing K-A1 retained FMC63 even up to 72 hours, indicating slower dissociation kinetics compared to F12.

FMC63 scFv [2] = assay: Yeast clone binding to biotinylated FMC63 scFv monomer, Kd by FACS; parameters: species or system murine; conditions: yeast clones
Experimental: Identifying specific mimotope clones of varying affinities will provide flexibility in treatments. In order to validate specific sequences, clones were isolated and measured for their affinity to FMC63. Specifically, a subset of mimotope clones were selected from the fixed library sequence described in Example 5. […] Given the FDA-approved CAR is an scFV derived from the parental IgG, mimotope binding to FMC63-scFv monomer was tested using biotinylated FMC63 scFV to measure Kd by FACS (FIG. 10B). […] This screen positively identified mimotope clones with varying affinities to FMC63 which may be used for a tailored vaccine approach.

FMC63 IgG [3] = assay: ELISA of N-terminally biotinylated F12 variants on streptavidin plate, binding to FMC63 IgG; parameters: species or system murine; conditions: biotinylated peptides, read-out: Kd (nM), FMC63 binding affinity of F12 variants with N-terminal flanking residues
Excerpt: It was further evaluated if addition of flanking residues to the terminus of a FMC63-binding mimotope would increase its binding affinity to FMC63, e.g., by increasing the mimotope surface area available for engaging in protein-protein interactions with FMC63. […] Additional Ser-Gly residues (between 3 and 15 additional residues) were included to further extend the N-terminal flanking region.

FMC63 IgG [4] = assay: Mimotope binding to FMC63 after DTT treatment of yeast, flow cytometry; parameters: species or system murine; conditions: DTT 0.01-10 mM, 30 minutes, room temperature
Experimental: To determine the formation of an intra-peptidyl disulfide bridge formed by the two Cys residues, mimotope expressing yeast were treated in reducing conditions and binding of the mimotope to FMC63 IgG was measured. […] Similarly, control cells expressing Aga2p (connected to the yeast surface by disulfide bridge) were treated with DTT. Following treatment, cells were labelled with biotinylated Aga2p or FMC63 and binding was measured by flow cytometry. At mild reducing conditions, Aga2p was maintained on the yeast surface while mimotope binding to FMC63 was abolished (FIG. 6). The inhibition of mimotope binding to FMC63 following treatment with a reducing agent reaffirms the formation of the disulfide bond and its importance for binding.
Target sequence in this assay (as listed by the source): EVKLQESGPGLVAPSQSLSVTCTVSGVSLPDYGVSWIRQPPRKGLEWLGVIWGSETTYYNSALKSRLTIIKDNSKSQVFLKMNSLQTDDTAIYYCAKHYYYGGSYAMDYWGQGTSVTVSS
Target sequence in this assay (as listed by the source): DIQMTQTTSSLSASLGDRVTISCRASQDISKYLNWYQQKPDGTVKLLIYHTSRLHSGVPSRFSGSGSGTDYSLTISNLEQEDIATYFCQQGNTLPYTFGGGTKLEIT

[5] = Micelle stability of lipid-oligonucleotide conjugates in the presence of serum (FBS); assay type: physicochemical; conditions: for micelle stability on increasing number of guanines: in the presence of serum
Excerpt: In certain embodiments, the linker is one or more guanines, for example between 1-10 guanines. It has been discovered that altering the number of guanines between a cargo such as a CpG oligonucleotide, and a lipid tail controls micelle stability in the presence of serum proteins. Therefore, the number of guanines in the linker can be selected based on the desired affinity of the conjugate for serum proteins such as albumin. When the cargo is a CpG immunostimulatory oligonucleotide and the lipid tail is a diacyl lipid, the number of guanines affects the ability of micelles formed in aqueous solution to dissociate in the presence of serum: 20% of the non-stabilized micelles (lipo-G0T10-CG) (SEQ ID NO: 138) were intact, while the remaining 80% were disrupted and bonded with FBS components.

[6] = system: FMC63 anti-hCD19 CAR-T cells; assay: IFNγ secretion of FMC63 CAR-T cells co-cultured with amph-mimotope coated K562 cells (ELISA); assay type: cell-based; conditions: K562 cells coated with 10 μM amph-mimotope; E:T 10:1; 24 hours; compared to amphiphile only control
Experimental: To determine the effect of the CD19 amph-mimotope on chimeric antigen receptor (CAR) T cells, in vitro stimulation of CAR-T cells was assessed after co-culture with antigen presenting cells (APCs) providing the amph-mimotope (FIG. 8A). Specifically, K562 cells were pelleted at 1,000×g for 3 minutes and washed with PBS twice to remove residual protein. The cell pellet was then resuspended at 1×10^6 cells/mL in PBS containing amph-mimotope ([…]; SEQ ID NO: 5) at 10 μM and incubated at 37° C. for 30 minutes. The labeling reaction was stopped by pelleting cells and washing with PBS. To mimic antigen presenting cells in lymph nodes, K562 cells were decorated with amph-mimotope, and then co-cultured at an effector to target (E:T) ratio of 10:1 with FMC63 expressing CAR-T cells (hCD19-CAR; SEQ ID NO: 78) for 24 hours. […]

FMC63 CAR T cells = assay: In vivo proliferation of FMC63 CAR T cells in inguinal lymph nodes (cell trace violet dilution); conditions: mice, s.c. tail base, 10 ug monovalent or 20 ug bivalent + 25 μg cyclic-di-GMP; inguinal LNs 48 hours post-vaccination
Experimental: CD45.1^+ donor FMC63 CAR T cells were prepared as described in Example 3 and labeled with cell trace violet according to manufacturer's protocol. 2×10^6 CAR T cells were administered into CD45.2^+ recipient mice via tail vein injection on Day 0. The following day, recipient mice were vaccinated by subcutaneous injection at the tail base with the following vaccine formulation: […]
(i) 10 ug of monovalent amph-mimotope (Amph-K-A1 or Amph-K-C2)+25 μg of cyclic-di-GMP in 1×PBS; or
(ii) 20 ug of amph-Bi-F12-mimotope (PEG4 or PEG8)+25 μg of cyclic-di-GMP in 1×PBS.
The volume of the formulation was 100 μL total, and the mice were administered 50 μL per each site of the tail base. Control mice received no vaccination. At 48 hours post-vaccination, recipient mice were euthanized and inguinal LNs were isolated for FACS analysis of CAR T proliferation.

FMC63 scFv, sequence (as listed by the source): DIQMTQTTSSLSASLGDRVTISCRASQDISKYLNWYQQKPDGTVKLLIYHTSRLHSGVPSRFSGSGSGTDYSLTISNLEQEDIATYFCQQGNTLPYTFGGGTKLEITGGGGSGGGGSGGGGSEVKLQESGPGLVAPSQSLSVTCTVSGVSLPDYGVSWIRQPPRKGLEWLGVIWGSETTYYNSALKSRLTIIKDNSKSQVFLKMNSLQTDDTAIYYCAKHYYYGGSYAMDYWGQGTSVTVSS

Compound: RICPWNCKEL [Clone F12]
time of retention of FMC63 scFv labeling after wash (FMC63 scFv [1]): ≤ 0.5 h

Kd (FMC63 scFv [2]): > 1000 nM
Compound: RICPWSCMVV [Clone B7]

Kd (FMC63 IgG [3]): 0.134 nM
Compound: CC[C@H](C)[C@H](NC(=O)[C@H](CCCNC(=N)N)NC(=O)[C@H](CO)NC(=O)[C@H](C)NC(=O)[C@H](CO)NC(=O)CNC(=O)CNC(=O)CNC(=O)CNC(=O)[C@H](CO)NC(=O)CNC(=O)CNC(=O)CNC(=O)CNC(=O)[C@H](CO)NC(=O)CNC(=O)CCCC[C@@H]1SC[C@@H]2NC(=O)N[C@@H]21)C(=O)N[C@H]1CSSC[C@@H](C(=O)N[C@@H](CCCCN)C(=O)N[C@@H](CCC(=O)O)C(=O)N[C@@H](CC(C)C)C(=O)O)NC(=O)[C@H](CC(N)=O)NC(=O)[C@H](Cc2c[nH]c3ccccc23)NC(=O)[C@@H]2CCCN2C1=O [SEQ ID NO: 98] (Biotin-GSGGGGSGGGGSASRICPWNCKEL-OH; disulfide 17-21)

Compound: PRKHSGRICPWNCKELDNPPFIFGNR [K-A1]
time of retention of FMC63 scFv labeling after wash (FMC63 scFv [1]): ≥ 72 h

Kd (FMC63 IgG [3]): 0.139 nM
Compound: CC[C@H](C)[C@H](NC(=O)[C@H](CCCNC(=N)N)NC(=O)[C@H](CO)NC(=O)[C@H](C)NC(=O)[C@H](CO)NC(=O)CNC(=O)CNC(=O)CNC(=O)CNC(=O)[C@H](CO)NC(=O)CNC(=O)CNC(=O)CCCC[C@@H]1SC[C@@H]2NC(=O)N[C@@H]21)C(=O)N[C@H]1CSSC[C@@H](C(=O)N[C@@H](CCCCN)C(=O)N[C@@H](CCC(=O)O)C(=O)N[C@@H](CC(C)C)C(=O)O)NC(=O)[C@H](CC(N)=O)NC(=O)[C@H](Cc2c[nH]c3ccccc23)NC(=O)[C@@H]2CCCN2C1=O [SEQ ID NO: 97] (Biotin-GGSGGGGSASRICPWNCKEL-OH; disulfide 13-17)

Kd (FMC63 IgG [3]): 0.153 nM
Compound: CC[C@H](C)[C@H](NC(=O)[C@H](CCCNC(=N)N)NC(=O)[C@H](CO)NC(=O)[C@H](C)NC(=O)[C@H](CO)NC(=O)CNC(=O)CNC(=O)CNC(=O)CNC(=O)[C@H](CO)NC(=O)CNC(=O)CNC(=O)CNC(=O)CNC(=O)[C@H](CO)NC(=O)CNC(=O)CNC(=O)CNC(=O)CNC(=O)CCCC[C@@H]1SC[C@@H]2NC(=O)N[C@@H]21)C(=O)N[C@H]1CSSC[C@@H](C(=O)N[C@@H](CCCCN)C(=O)N[C@@H](CCC(=O)O)C(=O)N[C@@H](CC(C)C)C(=O)O)NC(=O)[C@H](CC(N)=O)NC(=O)[C@H](Cc2c[nH]c3ccccc23)NC(=O)[C@@H]2CCCN2C1=O [SEQ ID NO: 99] (Biotin-GGGGSGGGGSGGGGSASRICPWNCKEL-OH; disulfide 20-24)

mimotope binding to FMC63 after DTT treatment (FMC63 IgG [4]): abolished
Compound: RHCPWNCSLL [Clone A1]

Compound: lipo-G0T10-CG: diacyl lipid tail, G0T10 linker, CpG immunostimulatory oligonucleotide; non-stabilized micelles (DNA TTTTTTTTTTCG; diacyl lipid tail conjugated, backbone chemistry not given here)
percentage of micelles disrupted and bonded with FBS components ([5]; in the presence of serum (FBS)): 80%

Compound: lipo-G8T2-CG: diacyl lipid tail, G8T2 linker, CpG immunostimulatory oligonucleotide (DNA GGGGGGGGTTCG; diacyl lipid tail conjugated, backbone chemistry not given here)
micelle stability on increasing number of guanines [5]: did not further enhance micelle stability

Compound: lipo-G10T0-CG: diacyl lipid tail, G10T0 linker, CpG immunostimulatory oligonucleotide (DNA GGGGGGGGGGCG; diacyl lipid tail conjugated, backbone chemistry not given here)
micelle stability on increasing number of guanines [5]: did not further enhance micelle stability

Compound: amph-mimotope: DSPE-PEG2000 conjugated onto the N-terminus of synthesized cyclic mimotope RHCPWNCSLL (SEQ ID NO: 5) (disulfide 3-7 (inferred); not fully specified (N-terminus))
activation of CAR-T cells measured by IFNγ secretion [6]: significantly activated

Kd (FMC63 scFv [2]): > 1000 nM
Compound: RMCPWSCRPH [Clone A8]

Compound: Amph-K-C2: monovalent amph-mimotope: mimotope SEQ ID NO: 129 conjugated to DSPE-PEG2k (GGGSASRICPWNCKELPSPPRIFGNR; not fully specified; DSPE-PEG2k conjugate; Synthetic: Mimotope of Amph-K-C2)
proliferation of CAR T cells in vivo measured by cell violet dilution (FMC63 CAR T cells): observed
